Holding throughout (test): Kinase panel
Holding throughout (format): biochemical

One assay addresses T1, PDK1(h) (Homo sapiens, UniProt O15530).
T1 construct: purchased Millipore KinaseProfiler
T1 sequence (O15530 1-556): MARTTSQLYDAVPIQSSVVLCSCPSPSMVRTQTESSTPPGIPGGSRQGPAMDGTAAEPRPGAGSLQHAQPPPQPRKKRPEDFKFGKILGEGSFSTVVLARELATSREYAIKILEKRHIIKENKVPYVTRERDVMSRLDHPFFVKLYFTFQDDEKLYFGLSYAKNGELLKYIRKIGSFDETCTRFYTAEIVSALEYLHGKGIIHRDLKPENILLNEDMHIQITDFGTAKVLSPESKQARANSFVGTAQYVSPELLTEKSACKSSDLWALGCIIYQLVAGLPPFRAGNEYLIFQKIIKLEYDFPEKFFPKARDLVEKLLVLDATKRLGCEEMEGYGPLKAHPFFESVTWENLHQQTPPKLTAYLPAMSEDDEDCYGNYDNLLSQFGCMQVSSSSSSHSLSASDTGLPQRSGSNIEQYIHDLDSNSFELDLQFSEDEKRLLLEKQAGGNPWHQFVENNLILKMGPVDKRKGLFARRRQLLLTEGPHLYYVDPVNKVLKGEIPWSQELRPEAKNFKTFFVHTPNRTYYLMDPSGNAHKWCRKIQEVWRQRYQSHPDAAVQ

The target of a further assay is T2, ZIPK(h) (Homo sapiens, UniProt O43293).
T2 construct: purchased Millipore KinaseProfiler

The next assay addresses T3, ASK1(h) (Homo sapiens, UniProt Q99683).
T3 construct: purchased Millipore KinaseProfiler
T3 sequence (Q99683 1-1374): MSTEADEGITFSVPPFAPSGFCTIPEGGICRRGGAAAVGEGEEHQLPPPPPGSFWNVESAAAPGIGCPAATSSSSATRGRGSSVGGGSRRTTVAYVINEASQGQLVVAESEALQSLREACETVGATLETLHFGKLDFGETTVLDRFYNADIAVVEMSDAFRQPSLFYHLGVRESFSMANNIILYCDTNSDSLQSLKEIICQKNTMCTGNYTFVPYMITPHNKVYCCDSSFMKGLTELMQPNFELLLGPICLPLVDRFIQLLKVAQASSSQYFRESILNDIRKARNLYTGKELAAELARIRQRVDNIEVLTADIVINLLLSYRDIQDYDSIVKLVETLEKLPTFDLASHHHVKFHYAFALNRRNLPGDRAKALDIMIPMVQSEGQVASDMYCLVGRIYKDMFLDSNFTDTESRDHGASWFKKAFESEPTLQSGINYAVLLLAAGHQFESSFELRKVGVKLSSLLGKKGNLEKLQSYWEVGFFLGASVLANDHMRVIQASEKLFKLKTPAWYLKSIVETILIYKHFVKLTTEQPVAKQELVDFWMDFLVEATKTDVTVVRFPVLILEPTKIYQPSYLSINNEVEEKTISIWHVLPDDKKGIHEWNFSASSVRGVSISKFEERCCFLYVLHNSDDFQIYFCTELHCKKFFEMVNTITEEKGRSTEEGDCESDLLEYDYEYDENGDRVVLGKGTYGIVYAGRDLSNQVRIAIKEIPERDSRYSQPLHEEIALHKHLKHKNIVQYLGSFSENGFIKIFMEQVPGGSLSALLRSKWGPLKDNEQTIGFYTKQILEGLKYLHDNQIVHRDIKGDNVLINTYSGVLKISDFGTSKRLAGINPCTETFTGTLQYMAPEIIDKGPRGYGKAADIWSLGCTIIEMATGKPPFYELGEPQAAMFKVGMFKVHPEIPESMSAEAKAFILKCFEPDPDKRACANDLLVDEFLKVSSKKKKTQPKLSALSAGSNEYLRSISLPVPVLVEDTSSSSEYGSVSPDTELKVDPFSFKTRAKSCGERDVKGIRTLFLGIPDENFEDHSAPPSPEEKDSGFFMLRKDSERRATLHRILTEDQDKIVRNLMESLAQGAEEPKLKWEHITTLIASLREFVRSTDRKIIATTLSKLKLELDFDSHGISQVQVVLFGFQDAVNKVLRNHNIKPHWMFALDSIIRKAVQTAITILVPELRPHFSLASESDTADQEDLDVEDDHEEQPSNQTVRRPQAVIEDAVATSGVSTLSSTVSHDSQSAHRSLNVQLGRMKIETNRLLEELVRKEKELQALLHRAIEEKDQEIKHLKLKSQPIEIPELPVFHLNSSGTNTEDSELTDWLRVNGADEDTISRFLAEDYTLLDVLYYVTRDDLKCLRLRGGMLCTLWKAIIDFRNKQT

In the next assay the target is T4, MELK(h) (Homo sapiens, UniProt Q14680).
T4 construct: purchased Millipore KinaseProfiler

A further assay deals with T5, DMPK(h) (Homo sapiens, UniProt Q09013).
T5 construct: purchased Millipore KinaseProfiler
T5 sequence (Q09013 1-629): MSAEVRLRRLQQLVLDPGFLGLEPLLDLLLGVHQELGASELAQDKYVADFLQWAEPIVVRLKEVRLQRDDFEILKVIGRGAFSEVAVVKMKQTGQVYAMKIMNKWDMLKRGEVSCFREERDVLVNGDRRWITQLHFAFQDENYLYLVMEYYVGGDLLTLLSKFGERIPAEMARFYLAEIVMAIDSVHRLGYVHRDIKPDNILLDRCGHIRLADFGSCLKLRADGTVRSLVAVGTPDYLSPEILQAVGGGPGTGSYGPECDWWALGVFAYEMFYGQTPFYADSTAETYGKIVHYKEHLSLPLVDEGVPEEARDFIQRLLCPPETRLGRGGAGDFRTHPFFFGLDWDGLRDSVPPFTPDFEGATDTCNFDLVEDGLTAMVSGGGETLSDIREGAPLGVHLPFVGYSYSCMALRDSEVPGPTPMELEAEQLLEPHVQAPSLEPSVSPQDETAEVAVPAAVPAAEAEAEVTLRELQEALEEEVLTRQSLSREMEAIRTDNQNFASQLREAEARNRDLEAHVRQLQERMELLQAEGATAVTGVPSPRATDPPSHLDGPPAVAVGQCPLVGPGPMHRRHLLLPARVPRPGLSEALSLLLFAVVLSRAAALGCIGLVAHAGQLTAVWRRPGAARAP

This note sets out measurements from publication PMC4076210, “Discovery of Novel AKT Inhibitors with Enhanced Anti-Tumor Effects in Combination with the MEK Inhibitor” (PLoS ONE, 2014).

Where two headings read alike, the source gives them in different places.

T2 sequence (O43293 whole entry): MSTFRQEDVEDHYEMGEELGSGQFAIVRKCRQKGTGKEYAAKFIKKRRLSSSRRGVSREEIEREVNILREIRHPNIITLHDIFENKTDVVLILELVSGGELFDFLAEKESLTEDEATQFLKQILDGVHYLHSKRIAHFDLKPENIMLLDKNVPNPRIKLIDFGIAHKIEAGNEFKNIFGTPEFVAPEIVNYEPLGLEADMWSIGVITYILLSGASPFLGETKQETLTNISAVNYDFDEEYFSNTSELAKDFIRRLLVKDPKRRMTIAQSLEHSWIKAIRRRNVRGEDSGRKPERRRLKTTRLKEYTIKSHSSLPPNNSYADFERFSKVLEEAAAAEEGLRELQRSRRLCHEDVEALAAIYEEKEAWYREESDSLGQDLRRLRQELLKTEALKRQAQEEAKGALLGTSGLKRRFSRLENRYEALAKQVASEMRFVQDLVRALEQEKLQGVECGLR
T4 sequence (Q14680 whole entry): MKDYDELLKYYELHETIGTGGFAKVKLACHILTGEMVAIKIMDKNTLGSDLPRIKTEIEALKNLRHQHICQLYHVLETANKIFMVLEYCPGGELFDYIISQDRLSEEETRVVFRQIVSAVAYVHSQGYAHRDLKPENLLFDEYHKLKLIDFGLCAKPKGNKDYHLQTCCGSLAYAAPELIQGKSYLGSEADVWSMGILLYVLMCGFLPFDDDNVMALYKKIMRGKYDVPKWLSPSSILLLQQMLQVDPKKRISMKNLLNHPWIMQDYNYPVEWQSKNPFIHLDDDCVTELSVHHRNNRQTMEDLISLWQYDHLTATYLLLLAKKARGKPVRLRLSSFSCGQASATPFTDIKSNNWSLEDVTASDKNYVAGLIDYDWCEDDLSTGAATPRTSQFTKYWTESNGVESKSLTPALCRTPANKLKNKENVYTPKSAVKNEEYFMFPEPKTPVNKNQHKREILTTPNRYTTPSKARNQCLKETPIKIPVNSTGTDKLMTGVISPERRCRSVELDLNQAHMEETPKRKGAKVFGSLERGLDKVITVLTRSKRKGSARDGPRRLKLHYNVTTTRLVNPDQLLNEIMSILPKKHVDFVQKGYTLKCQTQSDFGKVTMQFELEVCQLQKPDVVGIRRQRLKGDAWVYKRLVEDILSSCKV

On to `Cn1ncc(Cl)c1-c1cc(C(=O)N[C@H](CN)Cc2cccc(F)c2)sc1Cl` [GSK2110183], for which the inhibition (commonly the drop in the measured response relative to a control, in per cent) at 0.5 µM at PDK1(h) is -12%; at ZIPK(h), 0%; against ASK1(h), -2%; against MELK(h), 79%; on DMPK(h), -8%. The inhibition at 10 µM at PDK1(h) was -6%; against ZIPK(h) it was 62%; against ASK1(h), 3%; at MELK(h), 97%; on DMPK(h) it was 1%.

On to `Cn1ncc(Cl)c1-c1cc(C(=O)N[C@H](CN)Cc2ccc(F)c(F)c2)oc1Cl` [GSK2141795], for which the inhibition at 0.5 µM at PDK1(h) (0.5 µM, read-out: % Inhibition) is 3%; at ZIPK(h) (0.5 µM, read-out: % Inhibition), 19%; at ASK1(h) (0.5 µM, read-out: % Inhibition), -21%; at MELK(h) (0.5 µM, read-out: % Inhibition), 80%; on DMPK(h) (0.5 µM, read-out: % Inhibition) it was -12%. Moreover, the inhibition at 10 µM at PDK1(h) (10 µM, read-out: % Inhibition) was 19%; at ZIPK(h) (10 µM, read-out: % Inhibition), 78%; on ASK1(h) (10 µM, read-out: % Inhibition), -14%; on MELK(h) (10 µM, read-out: % Inhibition) it was 97%; at DMPK(h) (10 µM, read-out: % Inhibition) it was -5%.
